According to ChEMBL document CHEMBL3880408, “MgluR5 modulators” (2008):

assay: Ratio of drug level in brain to plasma in Sprague-Dawley rat by HPLC and MS-MS method; assay type: ADME, cell-free; conditions: read-out: BPR

Kp, < 0.5:
C[C@@H](Oc1nnc(-c2cn[nH]c(=O)c2)n1C)c1noc(-c2cccc(Cl)c2)n1
Cc1cccc(-c2cc([C@@H](C)Oc3nnc(-c4cn[nH]c(=O)c4)n3C)no2)c1
Cc1cccc(-n2nnc([C@@H](C)Oc3nnc(-c4cn[nH]c(=O)c4)n3C)n2)c1
C[C@@H](Oc1nnc(-c2ccn(C)c(=O)c2)n1C)c1cc(-c2cccc(Cl)c2)on1
C[C@@H](Oc1nnc(-c2cc[nH]c(=O)c2)n1C)c1nnn(-c2cccc(Cl)c2)n1
C[C@@H](Oc1nnc(-c2cn[nH]c(=O)c2)n1C)c1cc(-c2cccc(Cl)c2)on1
C[C@@H](Oc1nnc(-c2cn[nH]c(=O)c2)n1C)c1nnn(-c2cccc(Cl)c2)n1
C[C@@H](Oc1nnc(-c2cc[nH]c(=O)c2)n1C)c1noc(-c2cccc(Cl)c2)n1
C[C@@H](Oc1nnc(-c2ccn(C)c(=O)c2)n1C)c1noc(-c2cccc(Cl)c2)n1
Cn1c(OCc2cc(-c3cccc(Cl)c3)on2)nnc1-c1cc[nH]c(=O)c1
